Measurements taken from patent US20050171203A1, “Pregabalin composition” (Pfizer Inc., priority 2003, published 2005).

Experiments:
[1] = storage at 5° C.
[2] = test system: bacteria; yeasts and molds; E. coli; assay: antimicrobial efficacy testing (microbial limit test, European Pharmacopoeia 5th ed.); details: glycerol as preservative
[3] = observations on preserved pregabalin compositions (Remarks of Table 1: pH, particles, color, mold); type: physicochemical; details: sorbic acid used with pregabalin
From the text: Other common preservatives, such as ethanol, are unsuitable for use in pediatric formulations.
In TABLE 1, the annotations “Meets Ph. Eur.” and “Fails Ph. Eur.” refer to whether the test results meet or fail the microbial limit test as defined in the current edition of European Pharmacopoeia (5th ed., 2004): 1000 bacteria per g (max); 100 yeasts and molds per g (max); and free of E. coli.

SMILES	behaviour in solution under storage [1]	compliance with requirements of European Pharmacopoeia (5th ed., 2004) [2]	appearance of the solution [3]	shift in pH [3]
OCC(O)CO [glycerol]	precipitated out of solution	does not comply	–	–
O=C1NS(=O)(=O)c2ccccc21.[Na] [sodium saccharin]	remained in solution	–	–	–
C/C=C/C=C/C(=O)O [sorbic acid]	–	–	discoloration of the solution	5.0
OC[C@@H](O)[C@H](O)[C@@H](O)CO [xylitol]	precipitated out of solution	–	–	–
